Reference: US20260317335A1, “COMPOUNDS OF FUSED PYRROLE RINGS OR FUSED PYRIDINE RINGS” (PHARMAENGINE, INC., priority 2023, published 2026)

Test system: HCC1569 (CCNE1-amplified breast cancer cell line)
Experiment: Cell Proliferation Assay (CellTiter-Glo, 7 days)
Assay type: cell-based
Method: The sensitivity of cancer cell lines with normal or elevated CCNE1 levels to test compounds was evaluated in a cell proliferation assay. Cell lines were maintained in ATCC-recommended culture media supplemented with 10% FBS and 1% penicillin/streptomycin in a humidified 5% CO2 incubator. All test compounds were stored as 20 mM DMSO stock solutions.
On Day 0, CCNE1-wild type (wt) and CCNE1-amplified (amp) cells were seeded into 384-well plates and incubated for 16 to 24 hours in a humidified 5% CO2 incubator. On Day 1, test compounds were dispensed into wells at specified concentrations (n=2), with DMSO volume normalized to the highest concentration. Plates with compound-treated cells were incubated for 7 days in a humidified 5% CO2 incubator.
On Day 7, plates were removed from the incubator and equilibrated to room temperature. Relative inhibition was assessed by adding CellTiter-Glo reagent. Data were plotted as a percentage of the DMSO control for each compound in each cell line. IC50 values were calculated using a four-parameter nonlinear regression model (GraphPad Prism).

| IC50 [µM] | SMILES |
| --- | --- |
| 0.566 | Cc1nc2c3c(c1C)C=CNC(=O)c3c(N)n2-c1c(Cl)c(F)cc2[nH]ncc12 [Compound 137] |
| > 1 | Cc1nc2c3c(c1C)C=CNC(=O)c3c(N)n2-c1c(C)c(F)cc2[nH]ncc12 [Compound 138] |
| 0.018 | Cc1cc2c(C(N)=O)c(N)n(-c3c(C)ccc(O)c3C)c2nc1C [Rp6306, reference compound] |
| 0.666 | Cc1ccc2[nH]ncc2c1-n1c(N)c2c3c(c(C)c(C)nc31)C=CNC2=O [Compound 126] |
| > 1 | Cc1nc2c3c(c1C)C=CNC(=O)c3c(N)n2-c1c(Cl)cc(F)c2[nH]ncc12 [Compound 136] |
